Assay results from the NIST ThermoML archive (doi:10.1021/je060139a).

Test: refractive index (Na D-line) (dimensionless); xn = mol fraction of the nth substance listed
Conditions: 100.5 kPa, Liquid, Standard Abbe refractometry

CC(=O)OCc1ccccc1 [benzyl ethanoate] + CCO
refractive index
Conditions | 288.15 K | 298.18 K | 308.15 K | 318.15 K
x1 = 0.05 | 1.38022 | 1.37602 | 1.37164 | 1.36738
x1 = 0.1 | 1.39462 | 1.39033 | 1.38588 | 1.38161
x1 = 0.15 | 1.40725 | 1.40288 | 1.39843 | 1.39409
x1 = 0.2 | 1.41836 | 1.41395 | 1.40945 | 1.40506
x1 = 0.25 | 1.42813 | 1.42372 | 1.41929 | 1.41487
x1 = 0.3 | 1.43696 | 1.43255 | 1.4281 | 1.42364
x1 = 0.35 | 1.44489 | 1.44048 | 1.43604 | 1.43155
x1 = 0.4 | 1.45211 | 1.44767 | 1.44323 | 1.4387
x1 = 0.45 | 1.45868 | 1.4542 | 1.44974 | 1.44517
x1 = 0.5 | 1.4647 | 1.46016 | 1.45571 | 1.4511
x1 = 0.55 | 1.4702 | 1.46565 | 1.46119 | 1.45653
x1 = 0.6 | 1.47521 | 1.47065 | 1.46619 | 1.46154
x1 = 0.65 | 1.47987 | 1.47531 | 1.47082 | 1.46613
x1 = 0.7 | 1.48418 | 1.47958 | 1.47508 | 1.47036
x1 = 0.75 | 1.48819 | 1.48358 | 1.47907 | 1.47434
x1 = 0.8 | 1.49191 | 1.48729 | 1.48279 | 1.47804
x1 = 0.85 | 1.49539 | 1.49076 | 1.48626 | 1.48148
x1 = 0.9 | 1.49871 | 1.49408 | 1.48959 | 1.48481
x1 = 0.95 | 1.5017 | 1.49709 | 1.49262 | 1.48783
x1 = 1 | 1.50439 | 1.49982 | 1.49539 | 1.49064
